Assay results taken from patent publication US20180105561A1, “ANALOGS OF SODIUM CHANNEL PEPTIDE TOXIN” (priority 2010, published 2018).
Where a SMILES comes first, the peptide text is derived from it. Bridges are numbered along the chain shown (N, C = ends).

Tests used:
Nav1.2 (rBIIa) = assay: Sodium channel-blocking assay, Nav1.2 counter-screen; type: cell-based, rat; details: Table 3, natural toxins
human Nav1.7 = human Nav1.7 (Homo sapiens, UniProt Q15858); type: cell-based; details: Table 3, natural toxins
human Nav1.7, sequence (Q15858 other isoform, or with tags, fused parts or gaps): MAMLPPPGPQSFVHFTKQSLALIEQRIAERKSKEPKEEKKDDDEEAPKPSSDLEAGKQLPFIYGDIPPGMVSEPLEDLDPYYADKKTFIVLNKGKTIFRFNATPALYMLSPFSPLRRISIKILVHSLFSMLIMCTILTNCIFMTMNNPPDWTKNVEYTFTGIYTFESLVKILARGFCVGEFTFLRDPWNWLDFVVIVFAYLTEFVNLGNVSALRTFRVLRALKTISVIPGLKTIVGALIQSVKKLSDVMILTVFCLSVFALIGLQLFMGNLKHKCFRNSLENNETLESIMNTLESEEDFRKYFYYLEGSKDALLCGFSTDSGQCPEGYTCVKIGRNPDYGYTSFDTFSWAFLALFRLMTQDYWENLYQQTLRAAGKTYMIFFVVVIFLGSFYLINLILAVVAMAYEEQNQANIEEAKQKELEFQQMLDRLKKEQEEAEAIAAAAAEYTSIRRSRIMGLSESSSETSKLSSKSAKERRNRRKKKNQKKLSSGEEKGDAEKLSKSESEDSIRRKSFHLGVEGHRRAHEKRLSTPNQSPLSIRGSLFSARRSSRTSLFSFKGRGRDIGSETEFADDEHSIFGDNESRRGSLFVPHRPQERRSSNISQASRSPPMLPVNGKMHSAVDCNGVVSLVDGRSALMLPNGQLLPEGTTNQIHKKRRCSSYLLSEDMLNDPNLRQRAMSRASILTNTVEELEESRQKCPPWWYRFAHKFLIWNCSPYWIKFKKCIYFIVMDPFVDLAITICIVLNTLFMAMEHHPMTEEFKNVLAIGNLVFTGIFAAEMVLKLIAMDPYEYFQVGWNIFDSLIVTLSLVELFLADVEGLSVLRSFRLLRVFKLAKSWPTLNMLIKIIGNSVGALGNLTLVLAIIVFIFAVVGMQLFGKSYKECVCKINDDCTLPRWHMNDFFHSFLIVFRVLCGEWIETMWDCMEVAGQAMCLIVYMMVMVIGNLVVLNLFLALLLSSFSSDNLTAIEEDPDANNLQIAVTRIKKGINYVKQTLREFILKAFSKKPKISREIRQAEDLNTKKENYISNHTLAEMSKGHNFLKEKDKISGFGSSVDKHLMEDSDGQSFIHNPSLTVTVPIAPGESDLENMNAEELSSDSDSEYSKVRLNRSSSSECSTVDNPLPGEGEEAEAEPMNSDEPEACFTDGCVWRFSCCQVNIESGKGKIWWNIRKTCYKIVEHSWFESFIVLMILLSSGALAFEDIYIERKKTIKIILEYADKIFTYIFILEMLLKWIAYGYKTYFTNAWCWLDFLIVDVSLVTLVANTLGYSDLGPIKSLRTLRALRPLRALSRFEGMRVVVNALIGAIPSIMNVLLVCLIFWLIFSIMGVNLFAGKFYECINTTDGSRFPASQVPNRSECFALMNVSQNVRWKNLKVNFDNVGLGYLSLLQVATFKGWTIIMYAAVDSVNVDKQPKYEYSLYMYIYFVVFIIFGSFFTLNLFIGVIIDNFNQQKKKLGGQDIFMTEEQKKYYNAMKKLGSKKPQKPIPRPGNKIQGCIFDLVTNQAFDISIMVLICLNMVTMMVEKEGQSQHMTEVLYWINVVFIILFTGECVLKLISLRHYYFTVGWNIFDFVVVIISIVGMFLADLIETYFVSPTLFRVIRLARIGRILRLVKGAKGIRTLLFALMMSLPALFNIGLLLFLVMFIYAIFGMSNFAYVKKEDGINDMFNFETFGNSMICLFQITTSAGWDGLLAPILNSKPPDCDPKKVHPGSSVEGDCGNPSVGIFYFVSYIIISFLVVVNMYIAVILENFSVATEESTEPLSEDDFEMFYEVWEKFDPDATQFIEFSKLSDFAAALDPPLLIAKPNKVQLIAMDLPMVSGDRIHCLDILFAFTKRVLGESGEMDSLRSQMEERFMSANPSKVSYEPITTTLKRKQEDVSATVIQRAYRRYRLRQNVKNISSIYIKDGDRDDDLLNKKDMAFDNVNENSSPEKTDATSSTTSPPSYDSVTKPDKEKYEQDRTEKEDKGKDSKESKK

CC[C@H](C)[C@H](NC(=O)[C@H](CCCCN)NC(=O)[C@H](CCCCN)NC(=O)[C@H](CCCCN)NC(=O)[C@@H]1CSSC[C@@H]2NC(=O)[C@H](CCCCN)NC(=O)[C@H](CCCNC(=N)N)NC(=O)[C@H](CCC(=O)O)NC(=O)[C@H](CCC(=O)O)NC(=O)[C@H](CC(=O)O)NC(=O)[C@@H]3CSSC[C@H](NC(=O)[C@H](C(C)C)NC(=O)[C@H](CC(C)C)NC(=O)CNC(=O)[C@H](CCC(=O)O)NC(=O)[C@H](CSSC[C@H](NC(=O)[C@@H](N)Cc4ccc(O)cc4)C(=O)N[C@@H](CCC(N)=O)C(=O)N[C@@H](CCCCN)C(=O)N[C@@H](Cc4c[nH]c5ccccc45)C(=O)N[C@@H](CCSC)C(=O)N[C@@H](Cc4c[nH]c5ccccc45)C(=O)N[C@@H]([C@@H](C)O)C(=O)N3)NC2=O)C(=O)N[C@@H](CCCNC(=N)N)C(=O)N[C@@H](CC(C)C)C(=O)N[C@@H](Cc2c[nH]c3ccccc23)C(=O)N1)C(=O)N[C@@H](CCC(=O)O)C(=O)N[C@@H](Cc1c[nH]c2ccccc12)C(=O)O [GsAF II] (H-YCQKWMWTCDEERKCCEGLVCRLWCKKKIEW-OH; disulfide 2-16, 9-21, 15-25)
IC50 (Nav1.2 (rBIIa)): 410 ± 20 nM
IC50 (human Nav1.7): 70 ± 10 nM
